Values joined by “and” are separate entries in the source; they are usually repeats but may differ in a detail not shown here. Identical values can stand only once. “Also recorded” adds a separate entry of the source.
Tests used:
bronchial asthma = assay type: in vivo
Text: Patient B-skii, reported with complaints of dyspnea attacks 6-7 times a day, cough with phlegm that was difficult to discharge, shortness of breath, and nasal obstruction. It is known from the history that, since 1985, they have suffered bronchial asthma, has been hospitalized several times by emergency medical services in the Allergological Department in conjunction with exacerbation of the disease. Since 1997, they have been taking systemic glucocorticoids (Prednisolone 2 tablets/day—maintenance dose). They are also receiving Beklazom LD 250 (up to 1000 μg/day), Flixotide 250 (to 1000 μg/day), prolonged broncholytics (Serevent 25 μg/unit 50 μg/s), Teotard 200 (2 k/day, 400 mg/day). The attacks are treated with salbutamol (Ventolin).
The patient was prescribed the treatment: • 1. Ventolin through a nebulizer during dyspnea attacks—for 2 days, then Astalin (DAI) during dyspnea no more than 3-4 times a day; • 2. Intravenous drip: • 1. Prednisolone 90 nu-60 nu-30 nu in 200.0 mL physiological saline; • 2. Euphylline 2.4%-10.0-5.0 mL. • 3. Heparin 5000 units. • 4. Benacort 200 (800 μg/day). • 5. Prednisolone 4 t/day (8:00, 12:00) • 6. Lazolvan through a nebulizer, then Ambrohexyl 1 t/3 times a day.
During attenuation of the acute condition (on the 8th day of hospitalization), SCV-07 was prescribed in an amount of 0.1 mg in 1.0 mL physiological saline once a day No. 5 daily [sic] intramuscular.
The patient took another examination under dynamic conditions (24 hours after the 5th intramuscular injection of SCV-07): Total blood analysis: erythrocytes—5.12·10^12/L, HB—159 g/L, leukocytes—9.7° 10^9/L, ESR—6 mm/h, b-, e—2%, rod nuclears—5%, segmented nuclears—67%, lymphocytes—20%, M—6%. Blood biochemistry: Sugar—5.7; Total bilirubin—8.9, ALT—0.12, AST—0.13, urea—5.12, creatinine—0.073 General sputum analysis—character—mucous, color gray, consistency viscous, flat epithelium 7-8, alveolar epithelium—none, leukocytes—1-2× in visual field. Hormonal status—cortisol—72.4 Evaluation of immune status

pollinosis = experiment: Case report: SCV-07 before specific immunotherapy of pollinosis; assay type: in vivo, human; conditions: SCV-07 perorally 1.5 mg once a day for 10 days, 15 days before SIT; season April-June 2006
Method: Patient.—P-na M. N., 45 years. Date of first consultation—October 2004. From the end of November 2004 to mid-March 2005, the patient underwent specific immunotherapy (SIT) for pollinosis, using the allergoid (“Puretal-tree”) according to the scheme: subcutaneous once a week, beginning with a single dose of the administered allergoid of 0.025 mL, the subsequent dose are escalated during the course of treatment until reaching a single dose of 0.5 mL (0.025 mL-0.05 mL, −0.1 mL-0.2 mL-0.3 mL-0.4 mL-0.5 mL), and the following does are staying on this dose. Considering the above situation, during October 2005, to increase the clinical effectiveness of SIT, under initiating or anticipatory conditions, immune stimulation—a course of the preparation “SCV-07” —was perorally administered as follows: 1.5 mg once a day daily for 10 days in a row. On completion of the “SCV-07” course, the patient, from the middle of November 2005 through mid-March 2006, underwent another course of SIT for pollinosis, using the allergoid “Puretal-tree” according to the previous scheme. The interval between the “SCV-07” course and the beginning of the SIT course for pollinosis was 15 days.

[1] = tested on: immediate allergic reaction to OVA aerosol; experiment: Immediate response to aerosol, comments recorded during aerosolization, guinea pig model; assay type: in vivo, Dunkin-Hartley guinea pigs; conditions: one animal per line, listed as SCV
Method: Female Dunkin-Hartley guinea pigs (200-350 g) were purchased from Charles River, Kingston, New York facility, Barrier […]. Animals were shipped to Duluth, Minn., and held in our animal facility for 5-7 days prior to beginning the experiment. Experimental treatment groups are outlined in Table 7. Animals were sensitized on day 0 ip with 50 mg/kg OVA. On Days 17, 18, 19, and 20, animals received an ip injection between 8 and 10 am with PBS, SCV-07 at 1 ug/kg, or SCV-07 at 10 ug/kg (Peptide treatment). Between 8 and 10 a.m. on Day 21, animals were administered peptide 2 hours before OVA or saline (NSS) aerosol challenge. 30 min before OVA or NSS aerosol challenge each animal was injected ip with an antihistamine (6.1 mg/kg pyrilamine maleate) to prevent death due to the anaphylactic response that accompanies aerosol OVA challenge. Animals were exposed to aerosol in pairs with either 1% OVA solution or NSS for 5 min in a plexiglass chamber (22×22×29 cm) using a DeVilbiss Model 35B Ultrasonic Nebulizer. Animals were observed during the total 5 min aerosolization and comments recorded. Within 22-24 hours after challenge, animals were euthanized, bled by cardiac puncture, lavaged and lung lobes removed for measurement of cellular infiltration. At the time of OVA or NSS challenge and euthanasia, animal weights ranged from approximately 350-550 g, with the average weight approximately 420 g. This experimental protocol is similar to that used in previously published studies (Regal and Fraser, 1996; Regal et al., 2000). The experimenter was not blinded to the treatment. […] In general, animals sensitized and challenged with OVA and antihistamine pre-treated will not die from the allergen challenge, but will experience labored breathing and oftentimes coughing and gasping. All 7 animals in the PBS OVA treatment group had some visible reaction as expected. The remarkable finding was the number of animals in the SCV 1 OVA and SCV 10 OVA treatment groups that had no apparent reaction to the OVA aerosol. […] The obvious speculation is that SCV-07 attenuates the immediate bronchoconstriction to allergen challenge. Follow-up experiments are definitely indicated by this observation.

spleen lymphocytes = conditions: cited from earlier work
bone marrow cells = conditions: cited from earlier work
[2] = tested on: immunization with sheep red blood cells; conditions: in vivo; cited from earlier work
[3] = 24 hours after the 5th injection
[4] = after 5 intramuscular injections of 0.1 mg

N[C@H](CCC(=O)N[C@@H](Cc1c[nH]c2ccccc12)C(=O)O)C(=O)O [SCV-07, γ-D-glutamyl-L-tryptophan]
Immune status: CD3+ (bronchial asthma; [3]): CD3^+- 52
Immune status: CD4+ (bronchial asthma; [3]): CD4^+- 36
Immune status: CD8+ (bronchial asthma; [3]): CD8^+- 15
Immune status: CD16+ (bronchial asthma; [3]): CD16^+- 7
Immune status: CD20+ (bronchial asthma; [3]): CD20^+-11
Immune status: CD25+ (bronchial asthma; [3]): CD25^+-1.3
Immune status: Ig A (bronchial asthma; [3]): Ig A - 1.11
Immune status: Ig G (bronchial asthma; [3]): Ig G - 11.5
Immune status: Ig M (bronchial asthma; [3]): Ig M - 0.9
Immune status: NST (bronchial asthma; [3]): NST - 100/163
Immune status: TSIK (bronchial asthma; [3]): TSIK - 77
Immune status: κ (NST ratio) (bronchial asthma; [3]): κ - 1.6
Immune status: Ig E (bronchial asthma; 24 hours after the 5th injection, 1130.6 on admission): Ig E - 672.1
Clinical dynamics of the disease (bronchial asthma; [4]): elimination of dyspnea attacks, cough, rhinitis
Patient well-being after the course (bronchial asthma; [4]): significant improvement of feeling well-being
Shortness of breath (respiratory rate) (bronchial asthma; after course, 24 per minute on admission): 16 per minute
Seasonal rhinoconjunctival symptoms after SIT preceded by SCV-07 course (pollinosis): seasonal rhinoconjunctival symptoms were virtually absent
Comment recorded during aerosolization ([1]; SCV 1 NSS: SCV-07 1 ug/kg ip, NSS aerosol): huddling in corner; also recorded: no rx
Comment recorded during aerosolization ([1]; SCV 1 OVA: SCV-07 1 ug/kg ip, OVA aerosol): slight cough 1x? and 1 cough?
Comment recorded during aerosolization ([1]; SCV 10 NSS: SCV-07 10 ug/kg ip, NSS aerosol): huddling in corner, no rx
Comment recorded during aerosolization ([1]; SCV 10 OVA: SCV-07 10 ug/kg ip, OVA aerosol): no rx (3×) and slight cough and 1 cough? and deeper breathing (2×)
Con-A-induced interleukin-2 (IL-2) production by spleen lymphocytes (spleen lymphocytes): increases
IL-2 receptor expression by spleen lymphocytes (spleen lymphocytes): increases
Expression of Thy-1.2 on bone marrow cells (bone marrow cells): stimulates expression
Effect in a model of immunization with sheep red blood cells [2]: strong immunostimulatory effect
